Earlier results, collected in patent US20060080073A1, “Three-dimensional structural activity correlation method” (priority 2002, published 2006).

Molecular target: T1, human corticosteroid-binding globulin (Homo sapiens, UniProt P08185)
T1 sequence (P08185 23-405): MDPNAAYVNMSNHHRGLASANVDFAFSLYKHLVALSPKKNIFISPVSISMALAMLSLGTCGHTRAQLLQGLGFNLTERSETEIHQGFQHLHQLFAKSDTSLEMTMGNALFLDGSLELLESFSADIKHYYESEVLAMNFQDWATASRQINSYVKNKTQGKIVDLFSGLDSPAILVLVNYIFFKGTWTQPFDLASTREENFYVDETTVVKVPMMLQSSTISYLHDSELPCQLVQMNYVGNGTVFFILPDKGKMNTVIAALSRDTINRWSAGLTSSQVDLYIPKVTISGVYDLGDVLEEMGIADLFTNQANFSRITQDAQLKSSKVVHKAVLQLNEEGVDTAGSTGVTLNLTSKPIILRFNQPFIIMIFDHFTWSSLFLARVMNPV
Settings: steroid derivatives disclosed by Cramer et al. (CoMFA benchmark); values given as negative logarithmic numbers, no unit

Row | Compound | Binding affinity to human corticosteroid-binding globulins (CBG)
1 | CC(=O)[C@H]1CC[C@H]2[C@@H]3CCC4=CC(=O)CC[C@]4(C)[C@H]3CC[C@]12C [progesterone] | −7.380
2 | C[C@]12CC[C@H]3[C@@H](CCC4=CC(=O)CC[C@@]43C)[C@@H]1CC[C@@H]2C(=O)CO [deoxycorticosterone] | −7.653
3 | C[C@]12CCC(=O)C=C1CC[C@@H]1[C@@H]2[C@@H](O)C[C@]2(C=O)[C@@H](C(=O)CO)CC[C@@H]12 [aldosterone] | −6.279
4 | C[C@]12CCC(=O)C[C@@H]1CC[C@@H]1[C@@H]2CC[C@]2(C)[C@@H](O)CC[C@@H]12 [dihydrotestosterone] | −5.919
5 | C[C@]12CCC(O)CC1CC[C@@H]1[C@@H]2CC[C@]2(C)C(O)CC[C@@H]12 (stereo partly drawn) [androstandiol] | −5.000
6 | C[C@]12CC[C@H]3[C@@H](CCC4=CC(=O)CC[C@@]43C)[C@@H]1CC[C@@H]2O [teststerone] | −6.724
7 | CC(=O)[C@H]1CC[C@H]2[C@@H]3CC=C4C[C@@H](O)CC[C@]4(C)[C@H]3CC[C@]12C [pregnenolone] | −5.255
8 | C[C@]12CC[C@H](O)CC1=CC[C@@H]1[C@@H]2CC[C@]2(C)C(=O)CC[C@@H]12 [dehydroepiandrosterone] | −5.000
9 | C[C@]12CCC(=O)C=C1CC[C@@H]1[C@@H]2[C@@H](O)C[C@@]2(C)[C@H]1CC[C@]2(O)C(=O)CO [cortisol] | −7.881
10 | C[C@]12CCC(=O)C=C1CC[C@@H]1[C@@H]2CC[C@]2(C)C(=O)CC[C@@H]12 [androstenedione] | −5.763
11 | C[C@]12C[C@H](O)[C@H]3[C@@H](CCC4=CC(=O)CC[C@@]43C)[C@@H]1CC[C@@H]2C(=O)CO [corticosterone] | −7.881
12 | CC(=O)[C@@]1(O)CC[C@H]2[C@@H]3CCC4=CC(=O)CC[C@]4(C)[C@H]3CC[C@@]21C [hydroxy progesterone] | −7.740
13 | C[C@]12CC[C@@H]3c4ccc(O)cc4CC[C@H]3[C@@H]1C[C@@H](O)[C@@H]2O [estriol] | −5.000
14 | C[C@]12CCC(=O)C=C1CC[C@@H]1[C@@H]2CC[C@@]2(C)[C@H]1CC[C@]2(O)C(=O)CO [deoxycortisole] | −7.881
15 | C[C@]12CC[C@@H](O)C[C@H]1CC[C@@H]1[C@@H]2CC[C@]2(C)C(=O)CC[C@@H]12 [etiocholanolone] | −5.255
16 | C[C@]12CC[C@@H](O)C[C@@H]1CC[C@@H]1[C@@H]2CC[C@]2(C)C(=O)CC[C@@H]12 [androsterone] | −5.613
17 | CC(=O)[C@@]1(O)CC[C@H]2[C@@H]3CC[C@@H]4C[C@H](O)CC[C@]4(C)[C@H]3CC[C@@]21C [hydroxy pregnenolone] | −5.000
18 | C[C@]12CCC(=O)C=C1CC[C@@H]1[C@@H]2C(=O)C[C@@]2(C)[C@H]1CC[C@]2(O)C(=O)CO [cortisone] | −6.892
